Measured values: patent US11160813B2, “Combination therapy for nonalcoholic steatohepatitis (NASH) and liver fibrosis” (Modunex Bio Corp., priority 2016, dated 2021)
Entries after “also recorded” stand apart in the source; their conditions may differ. Where two headings read alike, the source gives them in different places.

How the values were obtained:
[1] = test system: mouse model of NASH; assay: mouse model of NASH and fibrosis induced by streptozocin and high fat diet; assay type: in vivo, C59BL/6J mice; conditions: for NAS score: alone or in combination; for liver enzyme AST / liver enzyme ALP: OCA
Procedure: We have utilized a well validated mice model in which the NASH and fibrosis was induced by sequential induction of diabetes mellitus and a high fat diet (14). On day 2, C59BL/6J mice were injected with streptozocin, then treated with high fat diet from week 4 until week 9. The intervention treatment started from week 5 until week 9. On week 9, these mice were euthanized.
NAS scores were determined according to the consensus by Nonalcoholic Steatohepatitis Clinical Research Network (13)
Fibrosis scores were determined according to the consensus by Nonalcoholic Steatohepatitis Clinical Research Network (13).

[2] = cited from earlier work; for pruritus: placebo 38%
[3] = cited from earlier work
[4] = cited from earlier work; remark: listed apart in the source
[5] = cited from earlier work; remark: listed apart in the source
[6] = recent studies; cited from earlier work
[7] = test system: CCR5; conditions: animal model; cited from earlier work
[8] = HIV patients with HCV infection; cited from earlier work
[9] = FIG. 7B, MK-0812, alone or together

With CO[C@@H]1COCC[C@@H]1N[C@@H]1CC[C@@](C(=O)N2CCc3ncc(C(F)(F)F)cc3C2)(C(C)C)C1 [MK-0812] the NAS score ([1]; FIG. 1B, OCA and MK-0812 (10 mg twice daily)) was “modest reduction of NAS scores; also recorded: little effect”, the “fibrosis evidenced by staining of collagen (liver histology)” value (from here on “fibrosis evidenced … (liver histology)”) ([1]; FIG. 2B, OCA and MK-0812) was “reduction of fibrosis” and the “results in the NASH model when a CCR2 antagonist was used instead of MVC” value ([1]; FIG. 3B to 7B) was “Comparable results”. The fibrosis score ([1]; FIG. 3B, OCA and MK-0812, combination with half dose OCA and MK-0812 10 mg twice daily) was “reduction of fibrosis score”, the liver inflammation ([1]; FIG. 4B, OCA and MK-0812) was “reduction of liver inflammation” and the hepatocyte ballooning score ([1]; FIG. 5B, OCA and MK-0812) was “reduction of hepatocyte ballooning score”. The steatosis ([1]; FIG. 6B, full dose OCA, MK-0812 alone) was “no apparent effect on steatosis” and the “liver enzyme AST” value [1, 9] was “not observed”.
For CC[C@H]1[C@@H](O)[C@@H]2[C@H](CC[C@]3(C)[C@@H]([C@H](C)CCC(=O)O)CC[C@@H]23)[C@@]2(C)CC[C@@H](O)C[C@@H]12 [OCA, 6 α-ethyl-chemodeoxycholic acid], the pruritus ([2]; 10 mg once daily) is listed as 56%, the HDL ([2]; dose related) is listed as “dose related reduction in HDL; also recorded: reduction of HDL” and the severe pruritus ([2]; patients receiving OCA) is listed as 19-23%. For the same molecule, the frequency of pruritus ([2]; reported frequency) was “up to 80%”, the pruritus ([2]; titration regimen) was 70% and the bile duct histology ([3]; 26-week oral, rats) was “bile duct hyperplasia”. For the same molecule, the clinical chemistry parameters ([3]; 26-week oral, rats) was “increases in ALT, AST and ALP”, the liver weight ([3]; 26-week oral, rats) was “increased liver weight” and the “safety margin relative to recommended human dose” value ([3]; rat, in vivo) was 2.3 fold. For the same molecule, the “liver enzyme AST” value ([1]; FIG. 7A, MVC, alone or together) was “elevation in AST and ALP liver enzymes; also recorded: elevation of the liver enzyme AST”, the “liver enzyme AST” value [1, 9] was “elevation of the liver enzyme AST” and the “liver enzyme ALP” value ([1]; FIG. 8A, MVC, alone or together) was “elevation in AST and ALP liver enzymes; also recorded: elevation of the liver enzyme ALP”. The “liver enzyme ALP” value ([1]; FIG. 8B, MK-0812) was “elevation of the liver enzyme ALP”, the “exposure-adjusted incidence for all serious and otherwise clinically significant liver-related adverse reactions and isolated elevations in liver biochemical test” value ([4]; 10 mg group, placebo 2.4) was 5.2 per 100 patient exposure years (PEY) and the “exposure-adjusted incidence for all serious and otherwise clinically significant liver-related adverse reactions and isolated elevations in liver biochemical test” value ([4]; 25 mg group) was 19.8%. The “exposure-adjusted incidence for all serious and otherwise clinically significant liver-related adverse reactions and isolated elevations in liver biochemical test” value ([4]; 50 mg group) was 54.5%, the ALT levels ([5]; 9-month oral, dogs) was “elevated ALT levels” and the “clinical signs of toxicity that could be associated with liver function” value ([5]; dog, in vivo, po) was “yellow discoloration of skin, mucous membrane, and eyes”.
In the case of CCCCOCCOc1ccc(-c2ccc3c(c2)/C=C(/C(=O)Nc2ccc([S@@+]([O-])Cc4cncn4CCC)cc2)CCCN3CC(C)C)cc1 [cenicriviroc], the “effect on NASH” value [6] is given as “marginal effect on NASH” and the effect on fibrosis [6] is given as “relatively more significant effect on fibrosis”.
In the case of maraviroc [MVC], the “NAS score and fibrosis” value [7] is listed as “effective in an animal model for reducing NAS score and fibrosis”, the NAS score ([1]; FIG. 1A, maraviroc 45 mg/kg once daily orally, OCA 30 mg/kg once daily, 4 wks) is listed as “modest reduction of NAS scores” and the NAS score ([1]; FIG. 1A, maraviroc 45 mg/kg once daily orally, OCA 30 mg/kg once daily, 4 wks, listed as maravoric) is listed as “limited effect on the NAS score”. The “fibrosis evidenced … (liver histology)” value ([1]; FIG. 2A, maraviroc 45 mg/kg, OCA 30 mg/kg once daily, 4 wks) was “reduction of fibrosis”, the “fibrosis evidenced … (liver histology)” value ([1]; FIG. 2A, maraviroc 45 mg/kg, OCA 30 mg/kg once daily, 4 wks, listed as maraviroc) was “effective in reducing fibrosis; also recorded: more effective than OCA in reducing fibrosis” and the fibrosis score ([1]; FIG. 3A, maraviroc 45 mg/kg, OCA 30 mg/kg once daily, 4 wks) was “reduction of fibrosis score”. The liver inflammation ([1]; FIG. 4A, maraviroc 45 mg/kg, OCA 30 mg/kg once daily, 4 wks) was “reduction of liver inflammation”, the hepatocyte ballooning score ([1]; FIG. 5A, maraviroc 45 mg/kg, OCA 30 mg/kg once daily, 4 wks) was “reduction of the hepatocyte ballooning score” and the steatosis ([1]; FIG. 6A, maraviroc 45 mg/kg, OCA 30 mg/kg once daily, 4 wks) was “marginal effect on steatosis”. The liver fibrosis [8] was “Reducing liver fibrosis has been observed”.
